Key:
[1] = biological target: T1, M2 muscarinic (human) receptor (Homo sapiens, UniProt P08172); assay: M2 functional assay, intracellular cAMP (HTRF) in CHO cells, agonist and antagonist mode; type: cell-based
T1 construct: host or cells: CHO-K1
Method: Binding of CPL500036 was calculated as the percent binding inhibition of a radioactively labeled ligand specific for each target. Enzyme inhibition of CPL500036 was calculated as the percent inhibition of the activity of the control enzyme. “No interaction” was denoted if inhibition ≤ 25% of specific binding of the control. Determination of muscarinic acetylcholine receptor (M2) activity induced by CPL500036 (antagonism and agonism) was undertaken in human recombinant CHO cells by measurement of the intracellular cAMP level according to the service-provider’s protocol. IC50 (concentration causing a half-maximal inhibition of specific binding of the control) or EC50 (concentration causing a half-maximal response of specific binding of the control) and the Hill coefficient were determined by non-linear regression analysis of the competition curves generated with mean replicate values using Hill-equation curve fitting with software developed at Cerep (Celle-Lévescault, France).
Supplementary fig. 1 Assesment of possible allosteric modulation in M2 muscarinic (human) receptor […]
by CPL500036 in CHO cells.
The study was perfomed by Eurofins Cerep (Poitiers, France) according to the service-provider’s protocol. […] Cells were treated for 10 min with CPL500036. cAMP was detected by use of HTRF ( Homogeneous Time Resolved […]

hERG = hERG (Homo sapiens, UniProt Q12809); assay: hERG tail current, manual patch-clamp in hERG-HEK-293 transfected cells; type: cell-based
hERG, sequence (Q12809 whole entry): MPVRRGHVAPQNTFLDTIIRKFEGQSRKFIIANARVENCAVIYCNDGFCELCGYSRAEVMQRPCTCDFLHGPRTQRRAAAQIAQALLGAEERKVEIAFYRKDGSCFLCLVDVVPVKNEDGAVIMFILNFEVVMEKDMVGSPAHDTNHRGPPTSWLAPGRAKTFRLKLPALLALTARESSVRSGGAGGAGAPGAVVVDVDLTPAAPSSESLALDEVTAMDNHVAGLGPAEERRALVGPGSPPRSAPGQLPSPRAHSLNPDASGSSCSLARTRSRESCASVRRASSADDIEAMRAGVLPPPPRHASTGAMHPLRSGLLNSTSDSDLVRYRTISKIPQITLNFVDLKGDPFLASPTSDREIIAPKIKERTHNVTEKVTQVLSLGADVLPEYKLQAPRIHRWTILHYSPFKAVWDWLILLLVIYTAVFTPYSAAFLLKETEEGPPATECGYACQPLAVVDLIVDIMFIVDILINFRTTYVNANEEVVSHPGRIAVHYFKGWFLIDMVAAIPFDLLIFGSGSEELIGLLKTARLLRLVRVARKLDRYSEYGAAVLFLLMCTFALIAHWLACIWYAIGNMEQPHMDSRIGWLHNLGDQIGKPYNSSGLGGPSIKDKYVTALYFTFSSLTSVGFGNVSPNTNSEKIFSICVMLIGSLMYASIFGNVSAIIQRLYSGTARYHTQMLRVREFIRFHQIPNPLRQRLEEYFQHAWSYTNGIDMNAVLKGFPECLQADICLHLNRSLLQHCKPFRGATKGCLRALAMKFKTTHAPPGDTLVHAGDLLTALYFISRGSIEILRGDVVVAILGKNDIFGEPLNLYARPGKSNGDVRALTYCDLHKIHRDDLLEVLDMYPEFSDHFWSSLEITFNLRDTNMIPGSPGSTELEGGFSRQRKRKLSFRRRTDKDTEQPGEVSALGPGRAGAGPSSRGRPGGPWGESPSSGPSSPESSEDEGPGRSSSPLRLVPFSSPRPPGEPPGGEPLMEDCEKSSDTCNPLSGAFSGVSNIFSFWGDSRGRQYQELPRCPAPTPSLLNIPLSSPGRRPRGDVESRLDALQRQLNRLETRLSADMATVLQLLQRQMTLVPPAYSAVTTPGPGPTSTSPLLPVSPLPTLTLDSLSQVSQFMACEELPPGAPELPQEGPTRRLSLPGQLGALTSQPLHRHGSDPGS
Method: The dose-dependent effect of CPL500036 (10^–7 M–10^–5 M) on hERG current was conducted at Centre De Recherches Biologiques (CERB; Baugy, France) using the whole hERG-HEK-293 transfected cell system and manual patch-clamp method. […] Cells were clamped to −80 mV, depolarized to 0 mV for 5 s (to allow activation of hERG current) and repolarized to −50 mV for 5 s (to allow hERG tail current to deactivate). This experimental procedure was repeated at a frequency of 0.06 Hz. Currents were filtered at 1 kHz and acquired at a frequency of 2 kHz. The amplitude of hERG tail current was measured during the repolarizing pulse from 0 mV to −50 mV. […] Currents were measured before and after exposure to CPL500036.

[2] = system: Salmonella typhimurium TA1537; assay: Ames test; settings: CPL500036 5000µg/plate, n=3
[3] = system: Escherichia coli WP2 uvrA; assay: Ames test; settings: CPL500036 5000µg/plate, n=3
[4] = Pharmacokinetics after oral gavage in rats (plasma and brain); type: in vivo, Wistar Han rats; settings: for AUC(0-t): read-out: AUC(0–24h)
Method: (§1) The study was carried out in 40 male Wistar Han rats (∼10 weeks; Tri-City Academic Laboratory Animal Centre, Research and Services Centre, Medical University of Gdansk). Rats were fasted for 12 h (water was available at libitum) before administration and fed 4 h post-dose. Rats received CPL500036 (3 mg/kg per oral gavage). At each of eight time points (15 min, 30 min as well as 1 h, 2 h, 4 h, 7 h, 12 h, and 24 h), five rats were killed by exsanguination, and samples of blood and brain were harvested. Two male and two female Beagle dogs (10.5–13 months old, MediTox s.r.o., Konarovice, Czech Republic) received CPL500036 in a dose of 1.5 mg/kg per oral gavage. Blood was taken by venepuncture from v. cephalica antebrachii at twelve time points (0 min, 15 min, 30 min as well as 1 h, 2 h, 3 h, 4 h, 6 h, 8 h, 12 h, 24 h, and 48 h.
(§2) Blood was collected into tubes containing the anticoagulant K2EDTA and centrifuged (2,000 × g, 15 min, 4°C) to obtain plasma. Brain samples were homogenized in water. Plasma and brain homogenates were stored at −80°C until analyses. Acetonitrile (150 μl) spiked with internal standard (donepezil; MilliporeSigma) was added to 50 μl of each plasma homogenate or brain homogenate, respectively. The mixture was shaken vigorously for 2 min and then centrifuged (4,000 × g, 4 min, room temperature). Supernatants were injected into a high-performance liquid chromatography system (Infinity™ 1,260; Agilent Technologies, Santa Clara, CA, United States) with a Zorbax SB column ([…]; 1.8 μm; Agilent Technologies). The mobile phase was ammonium formate (20 mM, pH 3.0) and acetonitrile with 0.1% formic acid. The gradient chromatographic separation used a flow rate of 0.4 ml/min for 7.5 min at a nominal temperature of 30°C. Signal acquisition was undertaken for 5.5 min using of a triple quadrupole mass spectrometer (6,460 series; Agilent Technologies) with electrospray ionization (5500 V, 320°C). Multiple-reaction monitoring was applied to detect the following transitions of the m/z ratio: 342.0–220.9 and 342–235.9 for CPL500036; 380.5–362.9 and 380.5–243.5 for donepezil. The drug concentration was calculated from the ratio of the peak area response relative to the internal standard using a standard curve.

[5] = Pharmacokinetics after oral gavage in dogs (plasma); type: in vivo; settings: both sexes, Beagle, dog plasma, 1.5 mg/kg oral gavage, mean ± SD, n = 4
Method: as §1, §2

other PDE family members = system: other PDE family members; parameters: method as in Moszczyński-Pętkowski et al., 2018; settings: at a concentration of 100x IC50; ref Moszczyński-Pętkowski et al., 2018; cited from earlier work
psychosis animal models = system: psychosis animal models; parameters: method as in manuscript in preparation; settings: ref manuscript in preparation; cited from earlier work
[6] = With metabolic activation (+S9 mix), 2AA 2µg/plate
[7] = Without metabolic activation (-S9 mix), 9AA 50µg/plate
[8] = Without metabolic activation (-S9 mix), MMS 2µg/plate
[9] = male, Wistar Han, rat brain, 3 mg/kg oral gavage, mean ± SD
[10] = male, Wistar Han, rat plasma, 3 mg/kg oral gavage, mean ± SD

T1 sequence (P08172 whole entry): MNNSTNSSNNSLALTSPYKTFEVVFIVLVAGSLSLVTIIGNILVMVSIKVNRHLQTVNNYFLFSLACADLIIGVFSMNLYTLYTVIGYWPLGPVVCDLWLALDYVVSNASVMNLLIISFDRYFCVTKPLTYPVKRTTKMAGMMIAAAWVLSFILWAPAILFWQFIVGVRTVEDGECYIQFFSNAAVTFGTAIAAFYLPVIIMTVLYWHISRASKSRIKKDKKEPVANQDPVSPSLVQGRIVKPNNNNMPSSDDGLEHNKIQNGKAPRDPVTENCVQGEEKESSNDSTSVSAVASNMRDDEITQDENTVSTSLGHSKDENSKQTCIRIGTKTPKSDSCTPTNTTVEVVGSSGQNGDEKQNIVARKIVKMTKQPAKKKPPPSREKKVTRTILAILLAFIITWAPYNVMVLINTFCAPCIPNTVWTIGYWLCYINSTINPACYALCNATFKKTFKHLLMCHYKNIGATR

## Cc1ncc(C)n2nc(-c3ccn4cc(-c5ccccc5)nc4n3)nc12 [CPL500036, 7-[5,8-Dimethyl-(1,2,4)triazolo (1,5-a)pyrazin-2-yl]-2-phenylimidazo (1,2-a) pyrimidine]
[1]
  IC50: 9.2 µM
[1]; agonistic mode, in presence of methoctramine, CHO cells, cAMP
  agonist-like behavior: didn’t trigger any agonist-like behavior
hERG
  hERG IC25 relative to the IC50 for PDE10A: > 3,000 times
hERG; hERG-HEK-293 transfected cells, manual patch-clamp, mean ± SD, n = 3
  IC25, inhibition of hERG tail current: 3.2 ± 1.6 µM
[2]; [6]
  Mutation rate: 0.69
  Revertants Mean±SD: 6.0±5.20
[2]; [7]
  Mutation rate: 0.71
  Revertants Mean±SD: 4.0±4.36
[3]; [6]
  Mutation rate: 1.76
  Revertants Mean±SD: 42.3±2.89
[3]; [8]
  Mutation rate: 1.12
  Revertants Mean±SD: 22.3±2.08
[4]; Wistar rats, 3 mg/kg, p.o.
  bioavailability: good bioavailability
[4]; male, Wistar Han, brain/plasma, rat, 3 mg/kg oral gavage, mean ± SD, read-out: B/P (brain to plasma ratio)
  Kp: 0.49 ± 0.06
[4]; [9]
  Cmax: 94.3 ± 28.5 ng/g
  Tmax: 6.8 ± 3.3 h
  AUC(0-t): 844 ± 202 ng·h/mL
[4]; [10]
  Cmax: 238 ± 98.1 ng/mL
  Tmax: 5.8 ± 1.6 h
  half-life: 6.4 ± 6.2 h
  AUC(0-t): 1620 ng·h/mL
[5]
  Cmax: 98.3 ± 55.4 ng/mL
  Tmax: 1.3 ± 0.5 h
  half-life: 2.1 ± 1.7 h
[5]; read-out: AUC(0–24h)
  AUC(0-t): 199 ± 106 ng·h/mL
Other PDE family members
  inhibition of other PDE family members: didn’t inhibit other PDE family members
Psychosis animal models
  dose showing therapeutic activity: 0.1 mg/kg
